Experiments:
Turbidity assay of LLPS = assay type: physicochemical; settings: 1× PBS pH 7.4, absorbance at 600 nm over 24 h, plate reader
From the text: Peptide synthesis and purification
The L- and D-enantiomers of (GHGLY)4, (GHGVY)4 and (GHGPY)4 peptides were purchased from GenScript and used without further modification. (GHGAY)4, (GHGFY)4, (GHGIY)4 and (GHGNY)4 were synthesized using standard Fmoc-SPPS chemistry on Rink Amide with Oxyma (Ethyl cyano(hydroxyimino) acetate) and N, N′-diisopropylcarbodiimide (DIC) as coupling agents on a Liberty Blue microwave-assisted synthesizer. Peptides were cleaved using a cocktail of trifluoroacetic acid (TFA), tri-isopropyl silane (TIS), and H2O (95:2.5:2.5) and extracted and washed in cold diethyl ether. The resulting pellet was dissolved in acetonitrile/water mixture (50:50) and frozen prior to lyophilization. Peptides were purified (~90%) using High Performance Liquid Chromatography (HPLC) on a Dionex Ultimate 3000 HPLC equipped with a diode-array detector on an Agilent Poroshell RP-C18 column (4.6 mm×150 mm), operating at a flow rate of 1 mL/min. […]
Peptide solutions (0.25–1.5 mM) were prepared in 1×PBS at pH 7.4. Aliquots (140 µL) were pipetted into a 96-well plate and absorbance at 600 nm was measured over 24 h using a Synergy HT plate reader (Biotek, USA) at RT or 37°C with or without agitation. The pH dependence of LLPS formation was assessed in 0.1 M potassium phosphate buffer (with 150 mM NaCl) at different pH values (5.8, 6.6, 7.4, 8.0) and 1 mM peptide concentration. […]
NaCl) was used to study ionic strength effects. The absorbance was further converted to turbidity using methods previously described 1 and data was plotted as relative turbidity. […]
Droplets were visualized in 1×PBS using NCI Leica DMC4500 microscope in reflection mode with differential interference contrast. […] Coacervate size was measured using 1 mM peptide solutions (1×PBS, pH 7.4) on a ZEN 3600 Zetasizer (Malvern Instruments, UK) using DLS-Zen 0040 specialized cuvettes. […]
Viscosity of the peptide solutions (1 mM or 2 mM) was tested using an ARES 2000ex rotational rheometer (TA Instruments, New Castle, DE). […] Viscosity was measured as a function

[1] = tested on: CD4+T cells from OT-II mice on BMDCs; assay: OT-II CD4+ T cell proliferation; assay type: cell-based, mouse; settings: BMDCs treated with OVA-loaded coacervates 24 h, CTV-labeled OT-II T cells ~66 h, flow cytometry
Method: (§1) page 14: parameters across two channels: eGFP and DAPI. […] Cells were incubated at 37°C (protected from light) for 20 min, after which 5× staining volume of EasySep Buffer was added for another 5 min of incubation. The cells were counted again, centrifuged at 300 g for 5 min, resuspended in RPMI-1640 (Gibco 31800- 022) with 10% FBS (R and D Systems […]), 10 mM HEPES (Sigma H0887), 1× MEM NEAA (Gibco 11140-050), 1 mM sodium pyruvate (Gibco 11360-070), 1× pen-strep glutamine (Gibco 10378-016), and 55 μM β-mercaptoethanol (Gibco 21985-023) added fresh, and then plated onto treated BMDCs. The plates were incubated for ~66 h, after which supernatants were collected for Mouse Adaptive Immune CodePlex Secretome analyses (Bruker Cellular Analysis, Inc), and cells were collected for flow cytometry studies. Flow cytometry Total cells from the spleen and lymph nodes of OT-I/OT-II mice were washed with FACS […] staining. […] Data were analyzed with FlowJo version 10. Proliferation was quantified as the percentage of daughter cells out of single, live, CD4+ or CD8+T cells, gated as having a lower CTV fluorescence intensity than the peak of highest fluorescence (undivided). […] Data are expressed as mean ± S.E.M. and statistical analysis was performed using a one-way or two-way ANOVA with Tukey/Sidak's/Dunnett's multiple comparison test. *p ≤ 0.05, **p ≤ 0.01, ***p ≤ 0.001, ****p ≤ 0.0001. […]

[2] = tested on: CD8+T cells from OT-I mice on BMDCs; assay: OT-I CD8+ T cell proliferation; assay type: cell-based, mouse; settings: BMDCs treated with OVA-loaded coacervates 24 h, CTV-labeled OT-I T cells ~66 h, flow cytometry
Method: as §1

turbidity over time (A600) (Turbidity assay of LLPS) | Substance | CD4+T cell proliferation [1] | CD8+T cell proliferation [2]
formed a turbid solution instantaneously | (GHGLY)4 [GL 20] | slightly higher | –
steadily increased over 24 h | (GHGVY)4 [GV 20] | – | higher percentage of proliferated cells

Reference: PMC11955804, “Histidine-rich enantiomeric peptide coacervates enhance antigen sequestration and presentation to T cells” (Chemical Science, 2025)
